Measured values as given in patent US20210183467A1, “SYSTEM AND METHOD FOR USING MICROBIOME TO DE-RISK DRUG DEVELOPMENT” (YALE UNIVERSITY, priority 2018, published 2021).

Format: in vivo, C57BL/6J mice
Procedure: Germfree mice were colonized with the wildtype and mutant strains. BRV was administered.
Individually caged GF C57BL/6J mice are colonized by oral gavage with 200 μL of an overnight GMM culture of either B. thetaiotaomicron wild type or bt4554 strains to generate GN^WT or GN^MUT mice, respectively. After 4 days, bacterial loads are determined by CFU plating on BHI blood agar prior to drug treatment.
Each drug treatment is performed using 20 treated and 5 to 6 untreated animals. Both genders are equally represented in each group and evenly distributed across the different time points for sample collection. Animals (n=5 per time point and group) are given 100 mg/kg body weight of BRV or SRV as suspensions in PBS (200 μL PBS for controls) by oral gavage. One blood sample is collected from each animal at an early time point (0.5, 1, 1.5, or 2 hours after drug administration) by submandibular bleeding. At 3, 5, 7, and 9 h, mice are sacrificed and tissue samples are collected into sample tubes and snap-frozen. Fecal samples are collected before euthanization and re-suspended in PBS (1 mL) through vigorous shaking. 20 μL are then plated on BHI blood plates and incubated aerobically and anaerobically at 37° C. to check GF, GN^WT, and GN^MUT animals for contamination. Monocolonized mice are also checked for contamination by PCR using primers 7 and 8.

O=c1[nH]c(=O)n([C@H]2C[C@H](O)[C@@H](CO)O2)cc1/C=C/Br [BRV, Brivudine]
absorption of BRV from the lower intestine (GN^MUT mice excrete the drug in feces): poorly absorbed
metabolism of cecal BRV by wildtype B. thetaiotaomicron (GN^WT mice): completely metabolizes
thymine in the liver (GN^WT mice after BRV administration): thymine accumulation in the liver
BRV serum kinetics (GN^WT versus GN^MUT mice): indistinguishable
